Test results reported in patent US11795162B2, “Modulators of the estrogen-related receptor” (Saint Louis University, priority 2017, dated 2023).

Molecular target: T1, ERR gamma protein (Homo sapiens, UniProt P62508)
T1 sequence (P62508 1-458): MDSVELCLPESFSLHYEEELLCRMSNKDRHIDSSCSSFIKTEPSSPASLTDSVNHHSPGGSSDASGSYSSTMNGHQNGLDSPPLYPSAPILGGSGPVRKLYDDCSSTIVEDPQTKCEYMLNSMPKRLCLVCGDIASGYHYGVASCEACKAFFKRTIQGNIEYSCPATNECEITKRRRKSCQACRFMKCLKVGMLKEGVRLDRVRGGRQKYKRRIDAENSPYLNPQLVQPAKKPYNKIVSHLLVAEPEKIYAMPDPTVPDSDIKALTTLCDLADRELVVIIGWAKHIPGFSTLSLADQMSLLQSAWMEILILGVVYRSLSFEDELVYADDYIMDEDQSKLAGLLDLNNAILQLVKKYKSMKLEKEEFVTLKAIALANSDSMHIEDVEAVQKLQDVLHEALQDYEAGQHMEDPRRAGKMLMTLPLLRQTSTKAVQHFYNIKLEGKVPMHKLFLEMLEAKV
Experiment: Protein thermal shift assay
Type: binding
Conditions: compound at 20 μM; ERR gamma protein 0.1 mg/mL, SYPRO-Orange; read-out: T.S. (thermal shift) range
Protocol: Six replicate reactions were set up and run in Applied Biosystems Quantstudio 7 Real-Time PCR system. Data were collected at a ramp rate of 0.05° C./s from 24° C. through 95° C. and analyzed using Protein Thermal Shift Software 1.3.

SMILES	ΔTm at 20 µM [°C]
N#Cc1cccc(-c2ccc(C(=O)Nc3ccc(O)cc3)s2)c1 [Compound 98]	2 to 4
O=C(Nc1cccc(C(F)(F)F)c1)c1ccc(-c2ccc(O)cc2)s1 [Compound 71]	0 to 2
O=C(NCc1ccccc1)c1ccc(-c2ccc(Cl)cc2)s1 [Compound 2, N-benzyl-5-(4-chlorophenyl)thiophene-2-carboxamide]	2 to 4
O=C(Nc1ccc(C(F)(F)F)cc1)c1ccc(-c2ccncc2)s1 [Compound 69]	0 to 2
O=C(NC1CCCCC1)c1ccc(-c2ccc(O)cc2)s1 [Compound 49]	2 to 4
Clc1ccc(-c2ccc(CNCc3ccccc3)s2)cc1 [Compound 3, N-benzyl-1-(5-(4-chlorophenyl)thiophen-2-yl)methanamine]	0 to 2
O=C(Nc1cccc(F)c1)c1ccc(-c2ccc3[nH]ccc3c2)s1 [Compound 66]	2 to 4
CC(C)c1ccc(-c2ccc(COc3ccccc3)s2)cc1 [Compound 4, 2-(4-isopropylphenyl)-5-(phenoxymethyl)thiophene]	0 to 2
O=C(Nc1ccc(O)cc1)c1coc(-c2ccsc2)n1 [Compound 10, N-(4-hydroxyphenyl)-2-(thiophen-3-yl)oxazole-4-carboxamide]	0 to 2
CC(C)c1ccc(-c2ccc(C(=O)Nc3ccc(O)cc3)s2)cc1 [Compound 13]	0 to 2
O=C(Nc1ccc2ccccc2c1)c1ccc(-c2ccc(O)cc2)s1 [Compound 31]	0 to 2
O=C(Nc1cccc(F)c1)c1ncc(-c2cccc(O)c2)s1 [Compound 21]	> 4
O=C(Nc1cccnc1)c1ccc(-c2cccc(F)c2)s1 [Compound 89]	0 to 2
O=C(O)c1ccc(-c2ccc(C(=O)Nc3ccc(F)cc3)s2)cc1 [Compound 48]	0 to 2
O=C(Nc1ccc(Cl)cc1)c1ccc(-c2ccccc2F)s1 [Compound 84]	2 to 4
COc1ccc(NC(=O)c2ccc(-c3ccc(O)cc3)s2)cc1 [Compound 29]	0 to 2
CC(C)Cc1ccc(-c2ccc(C(=O)Nc3ccc(O)cc3)s2)cc1 [Compound 79]	2 to 4
Nc1cccc(-c2ccc(C(=O)Nc3ccc4ccccc4c3)s2)c1 [Compound 54]	2 to 4
Cc1ccc(-c2ccc(C(=O)Nc3ccc(O)cc3)s2)cc1C [Compound 83]	0 to 2
CC(C)Cc1ccc(-c2ccc(C(=O)Nc3cccnc3)s2)cc1 [Compound 77]	0 to 2
Cc1ccc(-c2ccc(C(=O)Nc3cccnc3)s2)cc1C [Compound 81]	0 to 2
O=C(Nc1cccc(F)c1)c1ncc(-c2ccc(O)cc2)s1 [Compound 11, N-(3-fluorophenyl)-5-(4-hydroxyphenyl)thiazole-2-carboxamide]	> 4
O=C(Nc1ccncc1)c1ccc(-c2ccc(F)cc2)s1 [Compound 94]	0 to 2
O=C(Nc1ccc(F)cc1)c1ccc(-c2ccc(B(O)O)cc2)s1 [Compound 17]	2 to 4

SMILES	ΔTm at 20 µM [°C]
N#Cc1ccc(NC(=O)c2ccc(-c3cccc(O)c3)s2)cc1 [Compound 22]	0 to 2
CC(C)Cc1ccc(-c2ccc(C(=O)Nc3ccc(Cl)cc3)s2)cc1 [Compound 76]	0 to 2
Nc1ccc(-c2ccc(C(=O)NCc3cccc(F)c3)o2)cc1 [Compound 36]	0 to 2
O=C(Nc1ccccc1F)c1ccc(-c2cccc(B(O)O)c2)s1 [Compound 59]	0 to 2
O=C(Nc1ccncc1)c1ccc(-c2ccccc2F)s1 [Compound 86]	0 to 2
O=C(Nc1cccc(B(O)O)c1)c1ccc(-c2ccccc2F)s1 [Compound 44]	2 to 4
CC(C)Cc1ccc(-c2ccc(C(=O)Nc3ccncc3)s2)cc1 [Compound 78]	2 to 4
CC(C)c1cccc(-c2ccc(C(=O)Nc3ccc(O)cc3)s2)c1 [Compound 6, N-(4-hydroxyphenyl)-5-(3-isopropylphenyl)thiophene-2-carboxamide]	0 to 2
Cc1cccc(NC(=O)c2ccc(-c3ccc(O)cc3)s2)c1 [Compound 19]	0 to 2
CCOc1ccc(NC(=O)c2ccc(-c3cccc(O)c3)s2)cc1 [Compound 52]	2 to 4
O=C(Nc1ccc(Cl)cc1)c1ccc(-c2ccc(F)cc2)s1 [Compound 92]	0 to 2
N#Cc1cccc(-c2ccc(C(=O)Nc3ccc(Cl)cc3)s2)c1 [Compound 96]	0 to 2
O=C(Nc1cccc(C(F)(F)F)c1)c1ccc(-c2ccncc2)s1 [Compound 70]	0 to 2
O=C(Nc1cccc(F)c1)c1ccc(-c2ccc(O)c(C(F)(F)F)c2)s1 [Compound 61]	> 4
COc1ccc(NC(=O)c2ccc(-c3ccsc3)s2)cc1 [Compound 73]	0 to 2
O=C(Nc1ccc(C(F)(F)F)cc1)c1ccc(-c2ccc(O)cc2)s1 [Compound 68]	0 to 2
N#Cc1cccc(-c2ccc(C(=O)Nc3cccnc3)s2)c1 [Compound 97]	0 to 2
O=C(Nc1cccnc1)c1ccc(-c2ccc(F)cc2)s1 [Compound 93]	0 to 2
CCOc1ccc(NC(=O)c2ccc(-c3cccc(N)c3)s2)cc1 [Compound 51]	> 4
CC(C)c1ccc(NC(=O)c2cc(-c3ccc(O)cc3)[nH]n2)cc1 [Compound 5, 3-(4-hydroxyphenyl)-N-(4-isopropylphenyl)-1H-pyrazole-5-carboxamide]	2 to 4
Cc1ccc(-c2ccc(C(=O)Nc3ccc(Cl)cc3)s2)cc1C [Compound 80]	0 to 2
Cc1ccc(-c2ccc(C(=O)Nc3ccncc3)s2)cc1C [Compound 82]	0 to 2
COc1cc(NC(=O)c2ccc(-c3ccc(Cl)cc3)s2)cc(OC)c1 [Compound 75]	0 to 2
O=C(Nc1ccncc1)c1ccc(-c2cccc(F)c2)s1 [Compound 90]	2 to 4

The remaining lines, values ahead:

ΔTm at 20 µM [°C]	SMILES
0 to 2	Cc1ccccc1NC(=O)c1ccc(-c2cccc(O)c2)s1 [Compound 149]
> 4	Nc1cccc(NC(=O)c2ccc(-c3ccc(Cl)cc3)s2)c1 [Compound 132]
0 to 2	O=C(Nc1ccc(Cl)cc1)c1ccc(-c2ccc(C(F)(F)F)cc2)s1 [Compound 111]
0 to 2	N#Cc1ccc(-c2ccc(C(=O)Nc3ccc(Cl)cc3)s2)cc1 [Compound 99]
0 to 2	O=C(Nc1cccc(O)c1)c1nc(-c2ccsc2)cs1 [Compound 152]
2 to 4	N#Cc1ccc(-c2ccc(C(=O)Nc3ccc(O)cc3)s2)cc1 [Compound 102]
0 to 2	O=C(Nc1cccnc1)c1ccc(-c2ccsc2)s1 [Compound 103]
0 to 2	CC(C)c1cccc(-c2ccc(C(=O)Nc3ccncc3)s2)c1 [Compound 119]
0 to 2	O=C(Nc1ccc(O)cc1)c1ccc(-c2ccc3ccccc3c2)s1 [Compound 121]
0 to 2	CC(C)c1ccc(-c2ccc(C(=O)Nc3cccnc3)s2)cc1 [Compound 138]
2 to 4	O=C(Nc1ccc2ccccc2c1)c1cc(-c2cccc(O)c2)[nH]n1 [Compound 123]
0 to 2	O=C(Nc1cccc(O)c1)c1ncc(-c2ccsc2)s1 [Compound 147]
0 to 2	N#Cc1ccc(-c2ccc(C(=O)Nc3cccnc3)s2)cc1 [Compound 100]
0 to 2	CC(C)c1ccc(NC(=O)c2cc(-c3cccc(O)c3)[nH]n2)cc1 [Compound 130]
0 to 2	CC(C)c1cccc(-c2ccc(C(=O)Nc3ccc(Cl)cc3)s2)c1 [Compound 117]
2 to 4	O=C(Nc1ccc(O)cc1)c1ncc(-c2ccsc2)s1 [Compound 146]

ΔTm at 20 µM [°C]	SMILES
0 to 2	CC(C)Oc1ccc(-c2ccc(C(=O)Nc3ccncc3)s2)cc1 [Compound 116]
0 to 2	CC(C)Oc1ccc(-c2ccc(C(=O)Nc3cccnc3)s2)cc1 [Compound 115]
0 to 2	O=C(NCc1ccc(Cl)cc1)c1ccc(-c2cccc(O)c2)o1 [Compound 136]
0 to 2	O=C(Nc1cccnc1)c1ccc(-c2ccc(C(F)(F)F)cc2)s1 [Compound 112]
0 to 2	CC(C)c1cccc(NC(=O)c2ccc(-c3cccc(O)c3)s2)c1 [Compound 151]
0 to 2	CC(C)c1ccc(-c2ccc(C(=O)Nc3cccc(O)c3)s2)cc1 [Compound 140]
2 to 4	CC(C)c1ccc(-c2ccc(C(=O)Nc3ccncc3)s2)cc1 [Compound 139]
0 to 2	Nc1cccc(-c2ccc(C(=O)NCc3ccccc3)s2)c1 [Compound 142]
0 to 2	O=C(Nc1ccncc1)c1ccc(-c2ccc(C(F)(F)F)cc2)s1 [Compound 113]
0 to 2	O=C(Nc1ccc(O)cc1)c1nc(-c2ccsc2)cs1 [Compound 153]
0 to 2	Cc1ccc(NC(=O)c2cc(-c3cccc(O)c3)[nH]n2)cc1 [Compound 126]
0 to 2	N#Cc1ccc(-c2ccc(C(=O)Nc3ccncc3)s2)cc1 [Compound 101]
2 to 4	O=C(Nc1ccc(O)cc1)c1cc(-c2ccc(O)cc2)[nH]n1 [Compound 131]
0 to 2	O=C(Nc1ccc(F)cc1)c1nc(-c2cccc(O)c2)cs1 [Compound 150]
2 to 4	O=C(Nc1ccncc1)c1ccc(-c2cccc(C(F)(F)F)c2)s1 [Compound 109]
2 to 4	O=C(Nc1ccncc1)c1ccc(-c2ccc3ccccc3c2)s1 [Compound 120]
